Source: ChEMBL document CHEMBL5726133, “Dihydropyrrolopyridine inhibitors of ROR-gamma” (2017)

These molecules were tested against T1, Nuclear receptor ROR-gamma (Homo sapiens, UniProt P51449) (assay: Binding Assay: Compounds of the present invention were tested for ability to bind to RORγ in a cell-free competition assay with commercially available radio-ligand (RL), 25-hydroxy [26,27-3H]-cholesterol (PerkinElmer, Cat. #NET674250UC), for a ligand binding site on a recombinant RORγ Ligand Binding Domain (LBD) protein expressed as a 6×His-Glutathione-S-Transferase (GST) fusion. […] The plate was shaken at 700 rpm for 20 min and incubated for 10 min at rt, after which 40 μL of poly-Lys YSi SPA beads (PerkinElmer, Cat. #RPNQ0010) were added to achieve 50 μg of the beads per well. The plate was incubated on an orbital shaker for 20 min and then for 10 min without agitation at rt. SPA signal for tritium beta radiation was registered on PerkinElmer Microbeta plate reader.).
T1 sequence (P51449 whole entry): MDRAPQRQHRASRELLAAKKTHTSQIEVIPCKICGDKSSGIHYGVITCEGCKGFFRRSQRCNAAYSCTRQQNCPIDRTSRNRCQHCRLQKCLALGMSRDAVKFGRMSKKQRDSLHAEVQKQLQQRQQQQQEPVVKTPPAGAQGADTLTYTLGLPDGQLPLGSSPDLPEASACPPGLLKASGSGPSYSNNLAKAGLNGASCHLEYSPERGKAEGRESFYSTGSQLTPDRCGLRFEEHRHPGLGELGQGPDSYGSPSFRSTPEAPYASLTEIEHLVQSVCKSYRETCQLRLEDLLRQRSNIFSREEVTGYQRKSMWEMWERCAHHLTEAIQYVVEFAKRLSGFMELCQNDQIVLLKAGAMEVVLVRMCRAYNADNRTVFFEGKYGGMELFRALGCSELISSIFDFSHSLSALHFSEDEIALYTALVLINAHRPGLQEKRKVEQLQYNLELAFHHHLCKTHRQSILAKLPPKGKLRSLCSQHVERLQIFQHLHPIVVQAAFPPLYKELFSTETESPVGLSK

Ki, < 100 nM:
CCS(=O)(=O)c1ccc(CNC(=O)c2cnc3c(c2)C(=O)N(Cc2ccc(Cl)cc2)[C@H]3C(C)C)cc1
CCS(=O)(=O)c1ccc(C2(NC(=O)c3cnc4c(c3)CN(Cc3ccc(C(F)(F)F)cc3)[C@H]4C(C)C)CC2)nc1
CCS(=O)(=O)c1ccc(CC(=O)Nc2cnc3c(c2)CN(Cc2ccc(Cl)cc2)[C@H]3C(C)C)cc1
